Where a name gives a salt, the structure may show the parent alone. Read-outs that look alike come from different tables or passages of the source.
Biological target: T1, 5-HT3 receptor (Cavia porcellus, UniProt O70212)
T1 construct: from tissue; host or cells: guinea pig isolated ileum (terminal 15 cm)
T1 sequence (O70212 20-490): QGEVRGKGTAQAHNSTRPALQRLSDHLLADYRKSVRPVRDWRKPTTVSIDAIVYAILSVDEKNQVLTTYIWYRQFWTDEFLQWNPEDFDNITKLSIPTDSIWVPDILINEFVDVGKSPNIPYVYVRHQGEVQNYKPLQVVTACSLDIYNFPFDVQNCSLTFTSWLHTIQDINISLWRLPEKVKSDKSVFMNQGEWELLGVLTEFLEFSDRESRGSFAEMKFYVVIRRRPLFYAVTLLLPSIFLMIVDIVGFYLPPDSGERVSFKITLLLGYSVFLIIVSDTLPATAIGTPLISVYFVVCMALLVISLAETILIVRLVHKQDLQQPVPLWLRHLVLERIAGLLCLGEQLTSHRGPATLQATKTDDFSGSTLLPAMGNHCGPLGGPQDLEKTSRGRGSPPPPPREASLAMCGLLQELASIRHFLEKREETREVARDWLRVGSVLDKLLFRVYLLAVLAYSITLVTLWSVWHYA
Assay: 5HT3-antagonist activity: inhibition of 5-HT-induced contractions of isolated guinea pig ileum in the presence of methysergide
Format: cell-based
Procedure: Compounds of formula (I) were tested for their 5HT3 -antagonist activity using the following method:
5-HT produces contractions of the guinea pig ileum via 2 different receptors. 1) direct contractions via 5-HT2 receptors on the muscle, 2) indirect contractions via 5-HT3 recaptots on intrinsic gut neurones, producing acetylcholine release. By administering 5-HT to lengths of ileum in the presence of methysergide (to block 5-HT2 receptors) you can assay 5-HT3 receptor activity.
Guinea pigs were killed by means of cervical dislocation the terminal 15 cm of ileum removed, and 1.5-2.0 cm lengths prepared and mounted in 10 ml organ baths containing calcium deficient tyrodes of the following composition (mM) NaCl (136.9); KCl (2.68); CaCl2 (0.9); MgCl2 (1.05); NaCO3 (11.9); NaH2 PO4 (0.42); glucose (5.55) and containing methysergide (10^-6 M) maintained at 37° C. and gassed with 95% O2 and 5% CO2. The mechanical activity of the muscle was measured by a HSE 351 isometric transducer connected via a HSE bridge amplifier to a potentiometric pen recorder. Resting tension was 1 g and the tissue left to equilibrate for 1 hour.
First a dose response curve is obtained to acetylcholine on each tissue. Then one tissue is incubated for 20 min with tyrode and three with tyrode plus the putative 5-HT3 antagonist. After this incubation dose response curves to 5-HT are constructed to 5-HT in all 4 tissues (one control 3+test drug). Contact time for 5-HT 30 sec.
The maximum response to acetylcholine for each tissue is measured and the responses to 5-HT calculated as percentage maximum of the acetylcholine (Ach) maximum response in that tissue. The peak of the 5-HT response is measured.
For each tissue the concentration of 5-HT giving 100% of the maximum acetylcholine response (measured at 30 sac) is quoted.
The effect of a drug is quantified as the ratio of the concentration of 5-HT producing a 100% maximal Ach response in the presence and absence of the antagonist (dose ratio). The figure quoted is the concentration of the antagonist giving a dose ratio of 2, (A2).

[1] = guinea pig ileum, methysergide 10^-6 M, 37° C., 20 min incubation with antagonist, 5-HT contact time 30 sec, dose ratio at 100% maximal Ach response, read-out: A2 (concentration of the antagonist giving a dose ratio of 2) (converted)

Question: Which Kb [1] does the source give for `CN1[C@@H]2CCC[C@H]1C[C@@H](NC(=O)Nc1ccccc1-c1nc(-c3ccccc3)no1)C2` [Example 11, N-(Endo-9-methyl-9-azabicyclo[3.3.1]non-3-yl)-N ^1-(2-(3-phenyl-1,2,4-oxadiazol-5-yl)phenyl)urea] here?
Answer: The Kb was 24 nM.

Question: `CN1[C@@H]2CC[C@H]1C[C@@H](NC(=O)Nc1ccccc1C=NOCC1CC1)C2` [Example 15, N-(Endo-8-methyl-8-azabicyclo[3.2.1]oct-3-yl)-N^1-(2-(N-cyclo-propylmethoxyiminomethyl)phenyl)urea, HCl] was tested. Which Kb [1] did it give?
Answer: Its Kb is 5.05 nM.

Question: How did the Kb [1] turn out when `CCCCc1noc(-c2ccccc2NC(=O)N[C@H]2C[C@H]3CC[C@@H](C2)N3C)n1` [Example 7, N-(2-(3-Butyl-1,2,4-oxadiazol-5-yl)phenyl)-N^1-(endo-8-methyl-8-azabicyclo[3.2.1]oct-3-yl)urea, (CO2 H)2] was run?
Answer: The Kb was 13 nM.

Question: Which Kb [1] does the source give for `CCON=Cc1ccccc1NC(=O)N[C@H]1C[C@H]2CC[C@@H](C1)N2C` [Example 16, N-(Endo-8-methyl-8-azabicyclo[3.2.1]oct-3-yl)-N^1-(2-(N-ethoxyiminomethyl)phenyl)urea, HCl] here?
Answer: Its Kb is 36.3 nM.

Question: How did the Kb turn out when `O=C(Nc1ccccc1-c1nc(C2CC2)no1)NC1CN2CCC1CC2` (stereo not drawn) [Example 10, N-(2-(3-Cyclopropyl-1,2,4-oxadiazol-5-yl)-phenyl)-N^1-(3-quinuclidinyl)urea] was run?
Answer: The Kb was 283 nM.

Question: How did the Kb [1] turn out when `CN1[C@@H]2CC[C@H]1C[C@@H](NC(=O)Nc1ccccc1-c1nc(C3CC3)no1)C2` [Example 5, N-(2-(3-Cyclopropyl-1,2,4-oxadiazol-5-yl)phenyl)-N^1-(endo-8-methyl-8-azabicyclo[3.2.1]oct-3-yl)urea HCl] was run?
Answer: Its Kb is 43.5 nM.

Question: With `CN1[C@@H]2CCC[C@H]1C[C@@H](NC(=O)Nc1ccccc1-c1nc(C3CC3)no1)C2` [Example 8, N-(2-(3-Cyclopropyl-1,2,4-oxadiazol-5-yl)-phenyl)-N^1-(endo-9-methyl-9-azabicyclo[3.3.1]non-3-yl)urea, HCl] as the compound, how does the Kb [1] read?
Answer: The Kb was 3.41 nM.

Question: `Cc1noc(-c2ccccc2NC(=O)N[C@H]2C[C@H]3CC[C@@H](C2)N3C)n1` [Example 6, N-(Endo-8-methyl-8-azabicyclo[3.2.1]oct-3-yl) -N^1-(2-(3-methyl-1,2,4-oxadiazol-5-yl)-phenyl)urea, HCl] was tested. Which Kb [1] did it give?
Answer: The Kb was 293 nM.

Question: How did the Kb [1] turn out when `CON=Cc1ccccc1NC(=O)N[C@H]1C[C@H]2CCC[C@@H](C1)N2C` [Example 18, N-(2-(N-Methoxyiminomethyl)phenyl)-N^1-(endo-9-methyl-9-azabicyclo[3.3.1]non-3-yl)urea] was run?
Answer: The Kb was 36.3 nM.

Reference: patent US5330990A, “Substituted urea compounds and their preparation and use” (Novo Nordisk A/S, priority 1989, dated 1994)
